Experimental data taken from US10729636B2, “Compositions comprising peptide [sequence]” (NURITAS LIMITED, priority 2016, dated 2020).

Experiments:
HSkMC cells = assay: QPCR on specific genes of interest; type: cell-based; details: 0.5 ug/ml, normalised by B2M, over control
Method: A volume of 2 ml of HSkMC cells were seeded in a 6 cm plate, pre-coated with collagen, at a concentration of 2×10^5 cells. Cells were allowed to adhere overnight at 37° C. 5% CO2 and the following day the growth media was replaced with 2 ml of cell differentiation media and returned to the incubator at 37° C. 5% CO2. The cell differentiation media was changed every 2 days for a period of 6 days, until the HSkMC cells were fully differentiated into myotubes. On day 7, the cell differentiation media was replaced with 2 ml of basal media and starved overnight at 37° C. 5% CO2.
On the day of the experiment, the starvation media was removed and replaced with 2 ml of basal media containing 0.5 ug/ml of SEQUENCE ID NO: 1. Untreated cells were run in parallel. The cells were incubated in this treatment for a period of 20 min at 37° C. 5% CO2, at which point the treatment media was removed and the cells were scraped in 1 ml of PBS. The cell suspension was pelleted in a microcentrifuge at 1500 rpm for 5 min, and the supernatant was removed. The cells were immediately flash frozen in liquid nitrogen and transferred to a −80° C. freezer for storage until dispatched to CROs.
Quantitative PCR was performed using a TaqMan probe based method, where target mRNA expression was quantified relative to the expression of the B2M housekeeping gene. A master mix containing primer/probe and Taqman® Gene Expression Master Mix (ABI Biosystems, CA, USA) was added to 1 μl of cDNA template. A final volume of 10 μl was pipetted into a well of a 96-well Lightcycler plate (Sarstedt, Nümbrecht, Germany) in duplicate and real time PCR was performed on a Roche Lightcycler 96 (Roche Diagnostics, Basal, Switzerland) real time thermal cycler. The threshold cycle (Ct) for each well was calculated using the instrument software. Data analysis was based on the ΔΔCt method with raw data normalised by the B2M housekeeping gene included on the plate. Results are expressed as fold change over control.
QPCR results (methods of treatment remains the same; concentration of SEQ ID 1 remains 0.5 ug/ml)

AMPK pathway = assay: Phospho-AMPK alpha / Phospho-ACC / Phospho-Akt1 ELISA (mechanism of action); type: cell-based; details: phospho-ELISAs on cell lysates; FIGS. 12-14
Method: This set of experiments was undertaken to understand the mechanism of action of a peptide of SEQ ID NO. 1.
Phospho-Acetyl-CoA Carboxylase (Ser79) Sandwich ELISA Kit is a solid phase sandwich enzyme-linked immunosorbent assay (ELISA) that detects endogenous levels of acetyl-CoA carboxylase (ACC) when phosphorylated at Ser79. A phospho-ACC (Ser79) rabbit antibody was coated onto the microwells. After incubation with cell lysates, phospho-ACC protein was captured by the coated antibody. Following extensive washing, an ACC mouse detection mAb was added to detect the captured ACC protein. Anti-mouse IgG, HRP-linked antibody was then used to recognize the bound detection antibody. […] The magnitude of the absorbance for the developed color was proportional to the quantity of ACC phosphorylated at Ser79.
Phospho-Akt1 (Ser473) Sandwich ELISA Kit is a solid phase sandwich enzyme-linked immunosorbent assay (ELISA) that detects endogenous levels of phospho-Akt1 (Ser473) protein. […] The magnitude of absorbance for this developed colour is proportional to the quantity of phospho-Akt1 (Ser473) protein.
Phospho-AMPKα (Thr172) Sandwich ELISA Kit is a solid phase sandwich enzyme-linked immunosorbent assay (ELISA) that detects endogenous levels of AMPKα when phosphorylated at Thr172. […] The magnitude of the absorbance for this developed colour was proportional to the quantity of AMPKα phosphorylated at Thr172. […]

WKDEAGKPLVK [SEQ ID NO. 1] was tested, and the Fold change (HSkMC cells; ACVR2B) was 0.48 fold, the Fold change (HSkMC cells; Adiponectin) was 1.07 fold and the Fold change (HSkMC cells; COX4I1) was 0.85 fold. It also gave a Fold change (HSkMC cells; FBXO32) of 1.00 fold, a Fold change (HSkMC cells; GLUT4) of 1.95 fold and a Fold change (HSkMC cells; HSPA2) of 0.67 fold. It also gave a Fold change (HSkMC cells; LEPR) of 1.20 fold, a Fold change (HSkMC cells; Leptin) of 0.51 fold and a Fold change (HSkMC cells; MSTN) of 0.17 fold. The Fold change (HSkMC cells; MYOG) was 0.70 fold, the Fold change (HSkMC cells; NRF1) was 0.54 fold and the Fold change (HSkMC cells; PPARGC1A) was 0.69 fold. The Fold change (HSkMC cells; PRKAG3) was 0.35 fold, the Fold change (HSkMC cells; SIRT) was 0.41 fold and the Fold change (HSkMC cells; TRIM63) was 0.70 fold. The Fold change (HSkMC cells; UQCRB) was 2.56 fold and the “mechanism of action (pathway)” value (AMPK pathway) was “working through the AMPK pathway”.
